Measurements as given in ChEMBL document CHEMBL4811299, “Discovery of a novel class of heteroaryl-pyrrolidinones as positive allosteric modulators of the muscarinic acetylcholine receptor M1” (Bioorg Med Chem Lett, 2021).

Legend:
[1] = target: T1, Muscarinic acetylcholine receptor M1 (Homo sapiens) (UniProt P11229); experiment: Positive allosteric modulation of human muscarinic acetylcholine M1 receptor expressed in CHO cells in presence of acetylcholine at EC20 concentration by calcium mobilization assay relative to acetylcholine; type: functional, cell-based; details: time 3.5 min
T1 sequence (whole entry): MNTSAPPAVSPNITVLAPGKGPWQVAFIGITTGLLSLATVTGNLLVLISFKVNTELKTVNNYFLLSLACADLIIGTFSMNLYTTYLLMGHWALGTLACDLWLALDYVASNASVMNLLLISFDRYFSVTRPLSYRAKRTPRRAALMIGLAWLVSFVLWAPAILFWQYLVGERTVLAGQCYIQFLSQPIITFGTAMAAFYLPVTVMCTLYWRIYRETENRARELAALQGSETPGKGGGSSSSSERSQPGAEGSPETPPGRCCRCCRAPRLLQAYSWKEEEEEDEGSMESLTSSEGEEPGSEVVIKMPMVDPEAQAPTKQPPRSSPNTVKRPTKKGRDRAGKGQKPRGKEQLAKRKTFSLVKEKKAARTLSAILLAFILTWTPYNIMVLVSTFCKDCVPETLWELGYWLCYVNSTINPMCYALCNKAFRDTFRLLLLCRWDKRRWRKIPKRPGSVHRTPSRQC

[2] = target: T2, Muscarinic acetylcholine receptor M1 (Homo sapiens, UniProt P11229); experiment: Positive allosteric modulation of human muscarinic acetylcholine M1 receptor expressed in CHO cells in presence of acetylcholine at EC20 concentration by calcium mobilization assay; type: functional, cell-based
T2 sequence (P11229 whole entry): T1 sequence (whole entry)

[3] = target: T3, Muscarinic acetylcholine receptor M2 (Homo sapiens, UniProt P08172); experiment: Positive allosteric modulation of human muscarinic acetylcholine M2/Gqi5 receptor expressed in CHO cells in presence of acetylcholine at EC20 concentration by calcium mobilization assay; type: functional, cell-based
T3 sequence (P08172 whole entry): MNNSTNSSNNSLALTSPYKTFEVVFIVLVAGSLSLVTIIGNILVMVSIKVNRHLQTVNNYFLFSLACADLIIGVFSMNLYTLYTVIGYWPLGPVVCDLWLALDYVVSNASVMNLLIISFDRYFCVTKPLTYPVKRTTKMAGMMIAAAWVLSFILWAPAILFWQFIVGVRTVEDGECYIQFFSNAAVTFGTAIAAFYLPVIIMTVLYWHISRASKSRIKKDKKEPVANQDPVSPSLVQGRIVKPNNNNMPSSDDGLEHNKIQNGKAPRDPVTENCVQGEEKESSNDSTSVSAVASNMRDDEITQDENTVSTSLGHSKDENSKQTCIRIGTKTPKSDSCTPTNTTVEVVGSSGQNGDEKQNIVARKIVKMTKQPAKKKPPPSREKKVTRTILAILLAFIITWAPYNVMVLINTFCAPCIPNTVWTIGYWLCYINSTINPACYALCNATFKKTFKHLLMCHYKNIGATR

[4] = Protein binding in rat brain assessed as unbound fraction measured after 4 hrs by equilibrium dialysis assay; type: ADME, tissue-based
[5] = Unbound brain-to-plasma concentration ratio of the compound in rat at 0.20 mg/kg, iv administered as cassette dose measured at 0.25 hrs; type: ADME, organism-based; details: 0.2 mg/kg
[6] = Brain to plasma partition coefficient, Kp of the compound in rat at 0.20 mg/kg, iv administered as cassette dose measured at 0.25 hrs; type: ADME, organism-based; details: 0.2 mg/kg
[7] = Protein binding in rat plasma assessed as unbound fraction measured after 4 hrs by equilibrium dialysis assay; type: ADME, cell-free
[8] = target: T4, Muscarinic acetylcholine receptor M5 (Homo sapiens, UniProt P08912); experiment: Positive allosteric modulation of human muscarinic acetylcholine M5 receptor expressed in CHO cells in presence of acetylcholine at EC20 concentration by calcium mobilization assay; type: functional, cell-based
T4 sequence (P08912 whole entry): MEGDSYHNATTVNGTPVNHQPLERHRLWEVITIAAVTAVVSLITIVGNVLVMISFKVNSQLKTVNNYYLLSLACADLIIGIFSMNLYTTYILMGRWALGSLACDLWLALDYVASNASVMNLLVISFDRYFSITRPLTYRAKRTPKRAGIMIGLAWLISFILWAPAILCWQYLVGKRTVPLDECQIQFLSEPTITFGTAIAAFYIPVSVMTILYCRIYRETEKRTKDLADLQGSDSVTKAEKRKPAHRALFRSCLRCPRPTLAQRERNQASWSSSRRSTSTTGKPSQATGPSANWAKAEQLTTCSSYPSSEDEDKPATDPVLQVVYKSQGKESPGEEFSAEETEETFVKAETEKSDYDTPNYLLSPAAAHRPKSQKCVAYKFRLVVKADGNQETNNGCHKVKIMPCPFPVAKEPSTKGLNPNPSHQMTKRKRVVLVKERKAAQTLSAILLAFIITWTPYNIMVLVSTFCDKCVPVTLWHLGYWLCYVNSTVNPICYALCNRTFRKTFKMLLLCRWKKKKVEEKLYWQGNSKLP

[9] = Protein binding in human plasma assessed as unbound fraction measured after 4 hrs by equilibrium dialysis assay; type: ADME, cell-free
[10] = target: Muscarinic acetylcholine receptor M3 (Homo sapiens, UniProt P20309); experiment: Positive allosteric modulation of human muscarinic acetylcholine M3 receptor expressed in CHO cells in presence of acetylcholine at EC20 concentration by calcium mobilization assay; type: functional, cell-based
Chain of Muscarinic acetylcholine receptor M3 (P20309 whole entry): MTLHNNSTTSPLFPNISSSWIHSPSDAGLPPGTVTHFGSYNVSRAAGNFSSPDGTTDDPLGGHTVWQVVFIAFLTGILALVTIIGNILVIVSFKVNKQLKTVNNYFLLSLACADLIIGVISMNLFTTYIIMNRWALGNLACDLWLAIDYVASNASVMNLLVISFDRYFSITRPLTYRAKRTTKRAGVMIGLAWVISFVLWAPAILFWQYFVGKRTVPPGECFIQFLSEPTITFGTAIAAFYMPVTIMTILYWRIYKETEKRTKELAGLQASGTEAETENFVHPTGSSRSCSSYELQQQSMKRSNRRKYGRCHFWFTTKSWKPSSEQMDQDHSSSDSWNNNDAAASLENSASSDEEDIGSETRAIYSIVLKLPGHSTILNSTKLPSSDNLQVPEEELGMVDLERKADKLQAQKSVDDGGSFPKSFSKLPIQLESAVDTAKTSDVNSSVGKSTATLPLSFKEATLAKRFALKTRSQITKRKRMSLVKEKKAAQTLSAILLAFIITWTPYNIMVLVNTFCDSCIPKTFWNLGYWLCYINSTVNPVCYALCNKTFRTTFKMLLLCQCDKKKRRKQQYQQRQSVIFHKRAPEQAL

[11] = filed as positive allosteric modulator

Compound | Emax [1, 11] [%] | EC50 [2] [µM] | other results
Cn1cc2cc(-c3ccc(CN4Cc5sccc5C4=O)c(F)c3)ccc2n1 | 51 |  | 
Cn1cc2c(-c3cc(F)c(CN4Cc5ccn(CC6CCCO6)c5C4=O)c(F)c3)cccc2n1 (configuration not stated) | 58 |  | 
Cn1cc2cc(-c3ccc(CN4Cc5ncsc5C4=O)c(F)c3)ccc2n1 | 60 | 2 | EC50 [3]: > 10 µM; Fu [4]: 0.042; K(p,uu,brain) [5]: 2.2; Kp [6]: 2.1; Fu [7]: 0.04; EC50 [8]: > 10 µM; Fu [9]: 0.05; EC50 [10]: > 10 µM
Cn1cc2c(-c3cc(F)c(CN4Cc5cn(CC6CCCO6)nc5C4=O)c(F)c3)cccc2n1 (configuration not stated) | 61 | 3.54 | 
Cn1cc2c(-c3cc(F)c(CN4Cc5cnn(CCN6CCCC6)c5C4=O)c(F)c3)cccc2n1 | 87 | 0.739 | 
Cn1cc2cc(-c3cc(F)c(CN4Cc5occc5C4=O)c(F)c3)ccc2n1 | 45 |  | 
Cn1cc2cc(-c3cc(F)c(CN4Cc5ccsc5C4=O)c(F)c3)ccc2n1 | 40 |  | 
Cn1cc2c(-c3cc(F)c(CN4Cc5ccn(CCN6CCCC6)c5C4=O)c(F)c3)cccc2n1 | 56 |  | 
Cn1cnc2ccc(-c3cc(F)c(CN4Cc5sccc5C4=O)c(F)c3)cc21 | 60 |  | 
Cn1cc(-c2ccc(CN3Cc4ccsc4C3=O)c(F)c2)cn1 | 67 |  | 
Cn1cc2cc(-c3cc(F)c(CN4Cc5sccc5C4=O)c(F)c3)ccc2n1 | 59 |  | 
Cc1cc(-c2cc(F)c(CN3Cc4cnn(CC5CCCO5)c4C3=O)c(F)c2)ccn1 (configuration not stated) | 65 |  | 
Cc1nn(C)cc1-c1cc(F)c(CN2Cc3cnn(CC4CCCO4)c3C2=O)c(F)c1 (configuration not stated) | 77 |  | 
Cn1cc2c(-c3cc(F)c(CN4Cc5cn(CCN6CCCC6)nc5C4=O)c(F)c3)cccc2n1 | 57 |  | 
Cn1cc2c(-c3ccc(CN4Cc5sccc5C4=O)c(F)c3)cccc2n1 | 67 |  | 
Cn1cc2c(-c3cc(F)c(CN4Cc5cnn(CC6CCCO6)c5C4=O)c(F)c3)cccc2n1 (configuration not stated) | 85 | 1.12 | EC50 [3]: > 10 µM; Fu [4]: 0.019; Fu [7]: 0.027; EC50 [8]: > 10 µM; Fu [9]: 0.025; EC50 [10]: > 10 µM
Cn1cc2cc(-c3cc(F)c(CN4Cc5cnn(CC6CCCO6)c5C4=O)c(F)c3)ccc2n1 (configuration not stated) | 79 | 1.66 | 
O=C1c2scnc2CN1Cc1c(F)cc(-c2ccc3ncccc3c2)cc1F |  | 8 | Emax [1]: 30%
Cn1cc2cccc(-c3cc(F)c(CN4Cc5cnn(CC6CCCO6)c5C4=O)c(F)c3)c2n1 (configuration not stated) | 66 |  | 

Continued, in another order:

Emax [1, 11] [%] | EC50 [2] [µM] | Compound | other results
66 | 2.16 | Cn1cc2c(-c3cc(F)c(CN4Cc5ccsc5C4=O)c(F)c3)cccc2n1 | 
 | > 10 | Cc1[nH]cc2c1C(=O)N(Cc1c(F)cc(-c3cccc4nn(C)cc34)cc1F)C2 | 
 | > 10 | Cn1cc2c(-c3cc(F)c(CN4Cc5ncoc5C4=O)c(F)c3)cccc2n1 | 
67 |  | Cn1cc2c(-c3cc(F)c(CN4Cc5ccn(CCCO)c5C4=O)c(F)c3)cccc2n1 | 
84 | 3.93 | COCCn1ncc2c1C(=O)N(Cc1c(F)cc(-c3cccc4nn(C)cc34)cc1F)C2 | 
 | > 10 | Cn1cc2c(-c3cc(F)c(CN4Cc5nc[nH]c5C4=O)c(F)c3)cccc2n1 | 
84 | 1.51 | Cn1cc2c(-c3cc(F)c(CN4Cc5cnn(CCO)c5C4=O)c(F)c3)cccc2n1 | 
 | > 10 | Cn1cc2c(-c3cc(F)c(CN4Cc5ocnc5C4=O)c(F)c3)cccc2n1 | 
75 | 1.92 | Cn1cc2c(-c3cc(F)c(CN4Cc5sccc5C4=O)c(F)c3)cccc2n1 | 
